Assay results published in PubChem BioAssay AID2060505 (Molecular Pharmacology Branch, DTP, NCI, 2025).

System: 633275-114-R-J1-PDC complex spheroids, viability
Assay: Anticancer human tumor 633275-114-R-J1-PDC patient-derived endometrial adenocarcinoma cell line growth inhibition [GQUAD]
Details: for IC50: curve of first compound; for viability, T/C: stronger effect = lower value
Text: DNA G-quadruplex Stabilizer Agents in Combinations in Complex Spheroids
A high-throughput screen of multi-cell type tumor spheroids was designed to identify active combinations of DNA G-quadruplex stabilizer agents and targeted small molecules. Complex spheroids include a stromal component modeled by human endothelial cells (HUVEC) and fibroblasts modeled by human mesenchymal stem cells (MSCs). The concentration ranges selected for each drug and investigational agent were based upon clinically achievable concentrations if the clinical Cmax of the agent was known.
Compounds. The drugs and investigational agents: pidnarulex (CX-5461; NSC782164), APTO-253 (NSC789042), BRACO-19 (NSC847499), peposertib (NSC802822), ceralasertib (NSC780249), elimusertib (NSC800525), camonsertib (NSC841442), AZD-1390 (NSC803789), olaparib (NSC753686), talazoparib (NSC767125), ART-558 (NSC835418), sotorasib (NSC818433), MRTX-1133 (NSC836407), SN-38 (NSC673596), topotecan (NSC609699), etoposide (NSC141540), doxorubicin (NSC123127), gemcitabine (NSC613327), 5-fluorouracil (NSC19893), paclitaxel (NSC125973), vemurafenib (NSC761431), panobinostat (NSC761190), R-306465 (JNJ-16241199; NSC773264), adavosertib (NSC754352), TP-3654 (NSC805149), carboplatin (NSC241240), KSQ-4279 (NSC840948), and staurosporine (NSC755774) were obtained from the National Cancer Institute (NCI) Developmental Therapeutics Program Chemical Repository (34). The FDA-approved anticancer drug set is available from the NCI Developmental Therapeutics Program. […] The stock solutions were prepared in dimethyl sulfoxide (DMSO, Sigma-Aldrich, St. Louis, MO, cat. D2650) at 800-fold the tested concentration and stored at -70 degrees C prior to their use. All drugs and investigational agents were tested over a range starting from a high concentration at or near the clinical Cmax and decreasing in half-log increments. If the clinical Cmax for an agent had not been determined, the highest concentration tested was 10 microM.
2.3 Cell Culture. All cells were maintained in an incubator at 37 degrees C and 5% CO2 with 95% humidity. The PDC lines were cultured according to standard operating procedures established by the NCI PDMR. All PDCs were thawed and cultured in Matrigel-coated flasks prepared with a working solution of 1X Ham's F-12 nutrient mix, without supplementation (Invitrogen, cat. 11765054), 100 U/mL penicillin-streptomycin (Invitrogen, cat. 15140122), and 2.5% Matrigel (Corning Inc., cat. 354248) for the first three passages. The 857933-349-R-J2-PDC line was cultured in 6C/Colon 1B media, which includes advanced DMEM/F-12 (Thermo Fisher Scientific, cat. 12634028), 10 mM HEPES (Thermo Fisher Scientific, cat. 15630080), 1X GlutaMAX supplement (Thermo Fisher Scientific, cat. 35050061), 0.1 mg/mL primocin (InvivoGen, cat. ant-pm-2), 10% defined fetal bovine serum, heat inactivated (HyClone Laboratories Inc., cat. SH30070.03HI), 50% L-WRN conditioned media (ATCC, cat. CRL-3276), 1.25 mM N-Acetyl-L-cysteine (Sigma-Aldrich, cat. A9165), 10 mM nicotinamide (Sigma-Aldrich, cat. N0636), 1X B-27 supplement (Thermo Fisher Scientific, cat. 17504044), 1X N-2 supplement (Thermo Fisher Scientific, cat. 17502048), 10 microM Y-27632 dihydrochloride (Tocris Bioscience, cat. 1254), and 50 ng/mL human EGF recombinant protein (Thermo Fisher Scientific, cat. PHG0311). The 485176-168-R4-J1-PDC line was cultured in Panc media, which includes all 6C/Colon 1B media components plus 100 ng/mL human FGF-10 (Thermo Fisher Scientific, cat. 100-26), 500 nM SB-431542 (Selleckchem, cat. S1067), and gastrin (Tocris, cat. 3006).
[…]

[1] = second compound 0.0316 µM, first compound 0.0316 µM
[2] = second compound 0.0316 µM, first compound 0.1 µM
[3] = second compound 0.0316 µM, first compound 0.316 µM
[4] = second compound 0.0316 µM, first compound 1 µM
[5] = second compound 0.0316 µM, first compound 3.16 µM
[6] = second compound 0.0316 µM, first compound 10 µM
[7] = second compound 0.1 µM, first compound 0.0316 µM
[8] = second compound 0.1 µM, first compound 0.1 µM
[9] = second compound 0.1 µM, first compound 0.316 µM
[10] = second compound 0.1 µM, first compound 1 µM
[11] = second compound 0.1 µM, first compound 3.16 µM
[12] = second compound 0.1 µM, first compound 10 µM
[13] = second compound 0.316 µM, first compound 0.0316 µM
[14] = second compound 0.316 µM, first compound 0.1 µM
[15] = second compound 0.316 µM, first compound 0.316 µM
[16] = second compound 0.316 µM, first compound 1 µM
[17] = second compound 0.316 µM, first compound 3.16 µM
[18] = second compound 0.316 µM, first compound 10 µM
[19] = second compound 1 µM, first compound 0.0316 µM
[20] = second compound 1 µM, first compound 0.1 µM
[21] = second compound 1 µM, first compound 0.316 µM
[22] = second compound 1 µM, first compound 1 µM
[23] = second compound 1 µM, first compound 3.16 µM
[24] = second compound 1 µM, first compound 10 µM
[25] = second compound 3.16 µM, first compound 0.0316 µM
[26] = second compound 3.16 µM, first compound 0.1 µM
[27] = second compound 3.16 µM, first compound 0.316 µM
[28] = second compound 3.16 µM, first compound 1 µM
[29] = second compound 3.16 µM, first compound 3.16 µM
[30] = second compound 3.16 µM, first compound 10 µM
[31] = second compound 10 µM, first compound 0.0316 µM
[32] = second compound 10 µM, first compound 0.1 µM
[33] = second compound 10 µM, first compound 0.316 µM
[34] = second compound 10 µM, first compound 1 µM
[35] = second compound 10 µM, first compound 3.16 µM
[36] = second compound 10 µM, first compound 10 µM
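Note: spheroids exposed to the agents for seven days.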
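Throughout, for viability, T/C: percent of DMSO vehicle control viability which is 100%.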

For `COc1cc(C2c3cc4c(cc3C(OC3OC5COC(C)OC5C(O)C3O)C3COC(=O)C23)OCO4)cc(OC)c1O` (centres undefined) + Cc1[nH]c2ccc(F)cc2c1-c1nc2c3cccnc3c3ncccc3c2[nH]1, the IC50 (second compound 0.0316 µM) was 446 nM, the IC50 (second compound 0.1 µM) was 410 nM and the IC50 (second compound 0.316 µM) was 429 nM. The IC50 (second compound 1 µM) was 358 nM, the IC50 (second compound 3.16 µM) was 158 nM and the IC50 (second compound 10 µM) was 169 nM. For the same compound, the viability, T/C [1] was 88.3%, the viability, T/C [2] was 67.3% and the viability, T/C [3] was 52.6%. The viability, T/C [4] was 41.9%, the viability, T/C [5] was 40% and the viability, T/C [6] was 30.4%. It also gave a viability, T/C [7] of 87.8%, a viability, T/C [8] of 72.5% and a viability, T/C [9] of 50.1%. It also gave a viability, T/C [10] of 41.7%, a viability, T/C [11] of 39.2% and a viability, T/C [12] of 30.7%. For the same compound, the viability, T/C [13] was 85.5%, the viability, T/C [14] was 69.5% and the viability, T/C [15] was 51%. For the same compound, the viability, T/C [16] was 42.2%, the viability, T/C [17] was 38.3% and the viability, T/C [18] was 31.3%. It also gave a viability, T/C [19] of 86.5%, a viability, T/C [20] of 65.2% and a viability, T/C [21] of 51.6%. For the same compound, the viability, T/C [22] was 40.8%, the viability, T/C [23] was 36.1% and the viability, T/C [24] was 30.8%. The viability, T/C [25] was 64.2%, the viability, T/C [26] was 56.1% and the viability, T/C [27] was 41.7%. For the same compound, the viability, T/C [28] was 36.6%, the viability, T/C [29] was 37.3% and the viability, T/C [30] was 27.8%. For the same compound, the viability, T/C [31] was 65.5%, the viability, T/C [32] was 56.4% and the viability, T/C [33] was 41.8%. The viability, T/C [34] was 37.4%, the viability, T/C [35] was 33.4% and the viability, T/C [36] was 28.4%.

Work on `COc1ccc([C@@H](O)c2cc(-c3ncnc4cc(N5CCOCC5)ccc34)c(F)cc2Cl)nn1` + Cc1[nH]c2ccc(F)cc2c1-c1nc2c3cccnc3c3ncccc3c2[nH]1 yielded an IC50 (second compound 0.0316 µM) of 4910 nM, an IC50 (second compound 0.1 µM) of 3710 nM and an IC50 (second compound 0.316 µM) of 2910 nM. The IC50 (second compound 1 µM) was 3150 nM, the IC50 (second compound 3.16 µM) was 1880 nM and the IC50 (second compound 10 µM) was 1410 nM. It also gave a viability, T/C [1] of 107%, a viability, T/C [2] of 91% and a viability, T/C [3] of 82.9%. For the same compound, the viability, T/C [4] was 72.5%, the viability, T/C [5] was 58% and the viability, T/C [6] was 38.5%. For the same compound, the viability, T/C [7] was 96.8%, the viability, T/C [8] was 99.8% and the viability, T/C [9] was 87.5%. The viability, T/C [10] was 66.5%, the viability, T/C [11] was 54.8% and the viability, T/C [12] was 39.7%. It also gave a viability, T/C [13] of 89.5%, a viability, T/C [14] of 96.8% and a viability, T/C [15] of 88.9%. It also gave a viability, T/C [16] of 69.2%, a viability, T/C [17] of 50.2% and a viability, T/C [18] of 35.1%. For the same compound, the viability, T/C [19] was 83.8%, the viability, T/C [20] was 90.5% and the viability, T/C [21] was 85.4%. It also gave a viability, T/C [22] of 69.9%, a viability, T/C [23] of 51.1% and a viability, T/C [24] of 33.9%. For the same compound, the viability, T/C [25] was 71.3%, the viability, T/C [26] was 68.3% and the viability, T/C [27] was 63.2%. It also gave a viability, T/C [28] of 56.8%, a viability, T/C [29] of 44.7% and a viability, T/C [30] of 29.7%. The viability, T/C [31] was 70.3%, the viability, T/C [32] was 69.3% and the viability, T/C [33] was 70.6%. For the same compound, the viability, T/C [34] was 51.3%, the viability, T/C [35] was 42.3% and the viability, T/C [36] was 31.6%.
